Publication PMC9271048, “Probing strigolactone perception mechanisms with rationally designed small-molecule agonists stimulating germination of root parasitic weeds” (Nature Communications, 2022)

Test system: P. aegyptiaca seeds
Assay: P. aegyptiaca seed germination assay
Format: in vivo, Phelipanche aegyptiaca
Set-up: P. aegyptiaca seed germination activity, source data average: unit of the concentration uncertain
Settings: 0.1 (unit uncertain) as printed; Supplementary Fig. 9b
Summary of the method: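 Germination scored at ×20 magnification after one week dark incubation at 25 °C with compound (acetone stock diluted 999/1 in water). Seeds were NaClO-sterilized and conditioned 4 days at 25 °C in the dark beforehand; 1‰ acetone negative, rac-GR24 positive control; triplicate biological repeats.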

Structure (SMILES)	P. aegyptiaca seed germination activity, source data average [%]
CC1=CC(OC(=O)N2CCN(C(=O)COc3ccc(Br)cc3C)CC2)N(C)C1=O (stereo not drawn) [4h]	6.8801

Same assay, conditions: 1 (unit uncertain) as printed; Supplementary Fig. 9b

Structure (SMILES)	P. aegyptiaca seed germination activity, source data average [%]
CC1=CC(OC(=O)N2CCN(C(=O)COc3ccc(Br)cc3C)CC2)N(C)C1=O (stereo not drawn) [4h]	41.0534

Same assay, conditions: 10 (unit uncertain) as printed; Supplementary Fig. 9b

Structure (SMILES)	P. aegyptiaca seed germination activity, source data average [%]
CC1=CC(OC(=O)N2CCN(C(=O)COc3ccc(Br)cc3C)CC2)N(C)C1=O (stereo not drawn) [4h]	82.4464

Test system: not listed separately
Assay: Chemical reactivity analysis (HPLC, methanol/PBS pH 7.4)
Format: physicochemical
Settings: 1:3 methanol and PBS (10 mM) pH 7.4, HPLC
Experimental: Chemical reactivity is an important factor in the bioactivity of natural and synthetic SLs.
One hundred twenty microliters of sample solution was added to a solution of PBS (10 mM, pH 7.4, 810 μL) and methanol (270 μL). The solution was stirred vigorously for 30 s and then transferred to HPLC vial, and the vial was stored at 26 ± 1 °C. […] The analytical column was Extend-C18 (4.6 mm × 150 mm × 5 μm). The mobile phases were CH3CN and H2O (containing 0.1% HCO2H), VCH3CN:VH2O = 50:50, with a flow rate of 1 mL/min, and an injection volume of 5 μL. The percentage of remaining compounds in the solution was calculated from the peak area. The half-life times (t1/2) of samples were calculated.

Structure (SMILES)	half-life time (t1/2) [h]
CC1=CC(OC(=O)N2CCN(C(=O)COc3ccc(Br)cc3C)CC2)N(C)C1=O (stereo not drawn) [4h]	1.1

Same assay, conditions: Supplementary Fig. 10 source data; methanol/PBS pH 7.4, 26 °C

Structure (SMILES)	half-life time (t1/2), source data average [h]
CC1=CC(OC(=O)N2CCN(C(=O)COc3ccc(Br)cc3C)CC2)N(C)C1=O (stereo not drawn) [4h]	1.095

Target: ShHTL7 (Striga hermonthica, UniProt A0A0M3PNA2)
Assay: ShHTL7-hydrolysis reaction analysis (HPLC)
Format: biochemical
Settings: 10 μM compound, 30 °C, 30 min; Supplementary Figs. 11, 20a, 24a
Summary of the method: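 Compounds at 10 μM were incubated with 10 μg recombinant ShHTL7 or its mutants in PBS (pH 7.3) at 30 °C for 30 min, then quenched with methanol. The remaining compound was quantified by HPLC, and hydrolysis was expressed relative to a protein-free buffer control (n = 3).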

Sequence of ShHTL7 (A0A0M3PNA2 entry or part of it): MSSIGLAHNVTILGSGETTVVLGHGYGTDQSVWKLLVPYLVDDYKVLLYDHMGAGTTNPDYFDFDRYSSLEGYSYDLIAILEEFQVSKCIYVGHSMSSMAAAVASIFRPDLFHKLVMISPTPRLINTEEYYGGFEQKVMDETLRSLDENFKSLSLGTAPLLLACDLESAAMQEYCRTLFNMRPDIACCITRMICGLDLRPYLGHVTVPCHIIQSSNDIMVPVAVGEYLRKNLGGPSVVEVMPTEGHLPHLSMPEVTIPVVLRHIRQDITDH

Structure (SMILES)	relative percentage of hydrolysis by ShHTL7, source data average [%]
CC1=CC(OC(=O)N2CCN(C(=O)COc3ccc(Br)cc3C)CC2)N(C)C1=O (stereo not drawn) [4h]	12.2513

Test system: ShHTLs (10 HTL proteins in S. hermonthica)
Assay: YLG-based competition assay on HTL proteins of S. hermonthica
Format: biochemical, Striga hermonthica
Settings: ShHTL2; YLG competition; Supplementary Fig. 27; read-out: IC50, replicate 1
From the text: In P. aegyptiaca, 5 KAI2s have been proposed as the SL receptors for the regulation of seed germination. […] The high sequence similarity may explain the consistency of these compounds in inducing germination in both S. hermonthica and P. aegyptiaca.
The excitation and emission wavelengths of YLG are 480 and 520 nm, respectively. We used a fluorescence spectrophotometer (CARY Eclipse) to detect the fluorescence intensity change of YLG during the enzymatic hydrolysis assay process. All the testing compounds and YLG were dissolved in DMSO and prepared as stock solutions just before use. […] The changes of fluorescence at 520 nm of each well were recorded every 1 min for 30 min. Using the reaction mixture without adding enzyme and tested compounds as the background control. After subtracting the background hydrolysis, a linear fluorescence increase in 8 min was used for further inspection. The IC50 values were determined via fitting relative inhibition percentages with the varying concentrations of compounds in Microsoft Excel.
Supplementary Fig. 27. Binding of compounds 4a, (R)- and (S)-4a, and 4g-i to the HTL proteins in S. hermonthica and KAI2 protein homologs in P. aegyptiaca. In the competitive inhibitory activity assay, YLG (3 µM) was used as the fluorogenic substrate. Error bar indicates SD (n = 3 biologically independent experiments).
(1 picture or pasted object on this page, not shown here)

Structure (SMILES)	IC50 [µM]
CC1=CC(OC(=O)N2CCN(C(=O)COc3ccc(Br)cc3C)CC2)N(C)C1=O (stereo not drawn) [4h]	72.3

Same assay, conditions: ShHTL2; YLG competition; Supplementary Fig. 27; read-out: IC50, replicate 2

Structure (SMILES)	IC50 [µM]
CC1=CC(OC(=O)N2CCN(C(=O)COc3ccc(Br)cc3C)CC2)N(C)C1=O (stereo not drawn) [4h]	78.3

Same assay, conditions: ShHTL2; YLG competition; Supplementary Fig. 27; read-out: IC50, replicate 3

Structure (SMILES)	IC50 [µM]
CC1=CC(OC(=O)N2CCN(C(=O)COc3ccc(Br)cc3C)CC2)N(C)C1=O (stereo not drawn) [4h]	79.2

Same assay, conditions: ShHTL2; average of 3 replicates; Supplementary Fig. 27; read-out: IC50, average

Structure (SMILES)	IC50 [µM]
CC1=CC(OC(=O)N2CCN(C(=O)COc3ccc(Br)cc3C)CC2)N(C)C1=O (stereo not drawn) [4h]	76.6

Same assay, conditions: ShHTL3; YLG competition; Supplementary Fig. 27; read-out: IC50, replicate 1

Structure (SMILES)	IC50 [µM]
CC1=CC(OC(=O)N2CCN(C(=O)COc3ccc(Br)cc3C)CC2)N(C)C1=O (stereo not drawn) [4h]	> 100

Same assay, conditions: ShHTL3; YLG competition; Supplementary Fig. 27; read-out: IC50, replicate 2

Structure (SMILES)	IC50 [µM]
CC1=CC(OC(=O)N2CCN(C(=O)COc3ccc(Br)cc3C)CC2)N(C)C1=O (stereo not drawn) [4h]	> 100

Same assay, conditions: ShHTL3; YLG competition; Supplementary Fig. 27; read-out: IC50, replicate 3

Structure (SMILES)	IC50 [µM]
CC1=CC(OC(=O)N2CCN(C(=O)COc3ccc(Br)cc3C)CC2)N(C)C1=O (stereo not drawn) [4h]	> 100

Same assay, conditions: ShHTL3; average of 3 replicates; Supplementary Fig. 27; read-out: IC50, average

Structure (SMILES)	IC50 [µM]
CC1=CC(OC(=O)N2CCN(C(=O)COc3ccc(Br)cc3C)CC2)N(C)C1=O (stereo not drawn) [4h]	> 100

Same assay, conditions: ShHTL4; YLG competition; Supplementary Fig. 27; read-out: IC50, replicate 1

Structure (SMILES)	IC50 [µM]
CC1=CC(OC(=O)N2CCN(C(=O)COc3ccc(Br)cc3C)CC2)N(C)C1=O (stereo not drawn) [4h]	12.7

Same assay, conditions: ShHTL4; YLG competition; Supplementary Fig. 27; read-out: IC50, replicate 2

Structure (SMILES)	IC50 [µM]
CC1=CC(OC(=O)N2CCN(C(=O)COc3ccc(Br)cc3C)CC2)N(C)C1=O (stereo not drawn) [4h]	14.6

Same assay, conditions: ShHTL4; YLG competition; Supplementary Fig. 27; read-out: IC50, replicate 3

Structure (SMILES)	IC50 [µM]
CC1=CC(OC(=O)N2CCN(C(=O)COc3ccc(Br)cc3C)CC2)N(C)C1=O (stereo not drawn) [4h]	8.97

Same assay, conditions: ShHTL4; average of 3 replicates; Supplementary Fig. 27; read-out: IC50, average

Structure (SMILES)	IC50 [µM]
CC1=CC(OC(=O)N2CCN(C(=O)COc3ccc(Br)cc3C)CC2)N(C)C1=O (stereo not drawn) [4h]	12.1

Same assay, conditions: ShHTL5; YLG competition; Supplementary Fig. 27; read-out: IC50, replicate 1

Structure (SMILES)	IC50 [µM]
CC1=CC(OC(=O)N2CCN(C(=O)COc3ccc(Br)cc3C)CC2)N(C)C1=O (stereo not drawn) [4h]	32.9

Same assay, conditions: ShHTL5; YLG competition; Supplementary Fig. 27; read-out: IC50, replicate 2

Structure (SMILES)	IC50 [µM]
CC1=CC(OC(=O)N2CCN(C(=O)COc3ccc(Br)cc3C)CC2)N(C)C1=O (stereo not drawn) [4h]	39.4

Same assay, conditions: ShHTL5; YLG competition; Supplementary Fig. 27; read-out: IC50, replicate 3

Structure (SMILES)	IC50 [µM]
CC1=CC(OC(=O)N2CCN(C(=O)COc3ccc(Br)cc3C)CC2)N(C)C1=O (stereo not drawn) [4h]	42.1
